For data set [1], the target named is D816V KIT (Homo sapiens (Human), UniProt P10721, D816V). Nature of the data set: KIT D816V assay at Km (Caliper electrophoretic mobility shift). The following applies: biochemical, 15 uM ATP (Km), 90 minutes at 25 C; read-out: INH KIT D816V.
Data set [2] concerns the target KIT D816V kinase activity (KIT autophosphorylation at tyrosine 719) in HMC1.2 cells (Homo sapiens (Human), UniProt P10721, D816V/V560G). Kind of data set: HMC1.2 autophosphorylation assay (phospho-Y719 c-KIT AlphaLISA). Format: cell-based. As to conditions: HMC1.2 mast cell leukemia cell line (KIT V560G, D816V), 90 minutes compound; read-out: INH-KIT-PHOS-HMC1.2.
Data set [3] can be described thus: Body weight changes in the tumor bearing mice (P815 xenograft).
Data set [4] deals with PDGFRA D842V (Homo sapiens (Human), UniProt P16234, D842V). Nature of the data set: PDGFRA D842V assay at Km (Caliper electrophoretic mobility shift). The following applies: biochemical, 15 uM ATP (Km), 90 minutes at 25 C; read-out: INH PDFGRA D842V.
Sequence of PDGFRA D842V (P16234 24-1089 D842V): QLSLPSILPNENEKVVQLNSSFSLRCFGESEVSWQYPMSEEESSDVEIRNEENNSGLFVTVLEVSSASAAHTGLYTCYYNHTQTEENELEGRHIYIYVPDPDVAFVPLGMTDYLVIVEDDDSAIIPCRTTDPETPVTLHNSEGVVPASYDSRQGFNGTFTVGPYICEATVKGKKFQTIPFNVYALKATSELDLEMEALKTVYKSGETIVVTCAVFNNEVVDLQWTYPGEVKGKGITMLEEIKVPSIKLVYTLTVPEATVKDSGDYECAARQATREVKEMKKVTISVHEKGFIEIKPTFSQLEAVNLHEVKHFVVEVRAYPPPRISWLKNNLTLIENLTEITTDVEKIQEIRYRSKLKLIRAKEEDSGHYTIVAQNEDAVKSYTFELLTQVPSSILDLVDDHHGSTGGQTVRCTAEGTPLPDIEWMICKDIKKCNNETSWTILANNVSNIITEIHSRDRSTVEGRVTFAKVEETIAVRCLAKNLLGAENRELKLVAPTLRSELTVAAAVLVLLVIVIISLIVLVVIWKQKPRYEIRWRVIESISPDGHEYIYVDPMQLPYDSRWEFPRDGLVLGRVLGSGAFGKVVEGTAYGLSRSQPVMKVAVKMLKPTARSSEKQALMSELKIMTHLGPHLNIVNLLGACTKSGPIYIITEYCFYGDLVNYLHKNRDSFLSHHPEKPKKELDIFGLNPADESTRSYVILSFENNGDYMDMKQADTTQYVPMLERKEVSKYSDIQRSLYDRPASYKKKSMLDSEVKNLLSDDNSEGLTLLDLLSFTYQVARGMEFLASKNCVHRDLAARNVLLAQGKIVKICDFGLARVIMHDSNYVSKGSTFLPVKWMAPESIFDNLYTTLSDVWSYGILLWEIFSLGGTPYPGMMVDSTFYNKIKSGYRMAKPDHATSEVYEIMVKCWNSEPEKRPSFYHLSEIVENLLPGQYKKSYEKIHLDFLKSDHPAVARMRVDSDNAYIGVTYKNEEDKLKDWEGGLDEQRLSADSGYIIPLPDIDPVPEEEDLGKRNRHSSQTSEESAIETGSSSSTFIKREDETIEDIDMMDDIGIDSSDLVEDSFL
For data set [5] the following is noted: mouse, in vivo.
The test system of data set [6] is P815 tumor cells. Kind of data set: P815 mastocytoma xenograft model, tumor growth. Format: in vivo, mouse. The following applies: P815 xenograft in female BALB/c nude mice; 3, 10, 30, 100 mg/kg p.o. QD × 10. As to the method:
Compound 46 and Dasatinib were evaluated in a P815 mastocytoma xenograft model. P815 tumor cells (ATCC, Manassas, Va., cat # ATCC® TIB-64) were maintained in vitro as a suspension and monolayer culture in RPMI1640 medium supplemented with 10% fetal calf serum at 37° C. in an atmosphere of 5% CO2 in air. The tumor cells were sub-cultured twice weekly by trypsin-EDTA treatment. The cells growing in an exponential growth phase were harvested and counted for tumor inoculation.
Tumor sizes were measured every other day in two dimensions using a caliper, and the volume was expressed in mm^3 using the formula: V=0.5 a×b^2 where a and b were the long and short diameters of the tumor, respectively. […] T-C was calculated with T as the median time (in days) required for the treatment group tumors to reach a predetermined size (e.g., 1000 mm^3), and C as the median time (in days) for the control group tumors to reach the same size. […]
TGI was calculated for each group using the formula: TGI (%)=[1−(Ti−T0)/(Vi−V0)]×100; Ti is the average tumor volume of a treatment group on a given day, T0 is the average tumor volume of the treatment group on the day of treatment start, Vi is the average tumor volume of the vehicle control group on the same day with Ti, and V0 is the average tumor volume of the vehicle group on the day of treatment start. Tumor weight was measured at the endpoint. […]

The results in this text go back to patent US10807985B2 (Blueprint Medicines Corporation, priority 2013, dated 2020).

SMILES strings stand for the structures. “Also recorded” adds a separate entry of the source. A value given as a limit tells only on which side of the number the result lay.

Sequence of D816V KIT (P10721 26-976 D816V): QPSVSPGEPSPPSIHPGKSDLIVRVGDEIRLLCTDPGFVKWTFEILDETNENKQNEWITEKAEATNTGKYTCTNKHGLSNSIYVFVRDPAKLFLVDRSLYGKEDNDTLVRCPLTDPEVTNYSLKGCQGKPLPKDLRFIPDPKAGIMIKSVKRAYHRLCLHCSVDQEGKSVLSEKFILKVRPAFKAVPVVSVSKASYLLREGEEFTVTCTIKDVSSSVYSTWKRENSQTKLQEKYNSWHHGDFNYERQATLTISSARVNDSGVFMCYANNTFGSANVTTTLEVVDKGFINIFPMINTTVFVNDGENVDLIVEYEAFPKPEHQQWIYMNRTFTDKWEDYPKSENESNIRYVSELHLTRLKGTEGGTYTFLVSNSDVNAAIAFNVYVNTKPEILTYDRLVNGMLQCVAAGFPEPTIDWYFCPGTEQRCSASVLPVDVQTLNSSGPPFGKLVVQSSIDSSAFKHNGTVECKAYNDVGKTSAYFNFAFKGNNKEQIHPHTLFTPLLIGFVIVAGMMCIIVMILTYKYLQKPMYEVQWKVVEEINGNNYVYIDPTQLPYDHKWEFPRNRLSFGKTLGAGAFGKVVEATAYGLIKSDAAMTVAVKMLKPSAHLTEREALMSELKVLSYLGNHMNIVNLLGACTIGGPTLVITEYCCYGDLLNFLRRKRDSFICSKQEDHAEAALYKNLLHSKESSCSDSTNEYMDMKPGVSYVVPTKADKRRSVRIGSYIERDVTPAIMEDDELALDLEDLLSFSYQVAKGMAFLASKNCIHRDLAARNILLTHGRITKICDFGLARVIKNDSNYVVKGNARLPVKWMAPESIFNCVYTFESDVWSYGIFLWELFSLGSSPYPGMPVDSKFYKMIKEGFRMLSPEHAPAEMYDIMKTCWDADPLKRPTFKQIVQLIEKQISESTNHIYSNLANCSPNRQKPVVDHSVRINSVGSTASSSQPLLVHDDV
Sequence of KIT D816V kinase activity (KIT autophosphorylation at tyrosine 719) in HMC1.2 cells (P10721 26-976 V560G/D816V): as the sequence (P10721 26-976 D816V) above, with V535G counted along it

`Cn1cc(-c2cc3c(N4CCN(c5ncc([C@@](C)(O)c6ccc(F)cc6)cn5)CC4)ncnn3c2)cn1` [Compound 46]: the figures for the IC50 in data set [1], in data set [2] and in data set [4] were less than 1 nM, less than 50 nM and less than 1 nM, respectively. Also, the body weight change result in data set [3] (Compound 46 3-100 mg/kg p.o. QD × 10, even at the higher doses) is listed as “less than 5%”. For the same compound, the tolerability result in data set [5] is “well tolerated”. Further, the tumor growth inhibition result in data set [6] is “effective in inhibiting tumor growth; also recorded: observable antitumor activity”.
On to `Cn1cc(-c2cc3c(N4CCN(c5ncc([C@@](O)(c6ccc(F)cc6)C(F)F)cn5)CC4)ncnn3c2)cn1` [Compound 117], for which the figures for the IC50 in data set [1], in data set [2] and in data set [4] were less than 1 nM, less than 50 nM and 1.01 to 10 nM, respectively.
The like results for `Cn1cc(-c2cc3c(N4CCN(c5ncc([C@@](N)(c6ccc(F)cc6)C(F)(F)F)cn5)CC4)ncnn3c2)cn1` [Compound 122] were, in that order, 1.01 to 10 nM, less than 50 nM and 1.01 to 10 nM.
As to `Fc1ccccc1Sc1cnc(N2CCN(c3ncnn4cc(-c5cnn(C[C@@H]6CNCCO6)c5)cc34)CC2)nc1` [Compound 123, (S)-2-((4-(4-(4-(5-(2-fluorophenylthio)pyrimidin-2-yl)piperazin-1-yl)pyrrolo[1,2-f][1,2,4]triazin-6-yl)-1H-pyrazol-1-yl)methyl)morpholine], the IC50 fell in the range of 1.01 to 10 nM in data set [1], 50 to 100 nM in data set [2] and 1.01 to 10 nM in data set [4].
Consider `Cc1nc(Nc2ncc(C(=O)Nc3c(C)cccc3Cl)s2)cc(N2CCN(CCO)CC2)n1` [Dasatinib, reference compound], for which the body weight loss entry in data set [3] (Dasatinib 25 mg/kg p.o. BID × 10) is given as “more than 5%”.
